Data as given in patent publication US8097615B2, “Neurofibrillary labels” (Wista Laboratories Ltd., priority 2001, dated 2012).
Where “and” joins values, the source holds several entries; their conditions need not be identical. Identical values can stand only once.

Legend:
tau-tau binding [1] = molecular target: T1, tau-tau binding (Homo sapiens, UniProt P10636); experiment: Solid-phase tau-tau binding assay (dGA solid phase, dGAE liquid phase), tau Preparation 2; type: biochemical; details: Preparation 2
T1 construct: a truncated tau protein corresponding to the core fragment and terminating at Ala390-dGA; dGAE which terminates at Glu-391; made in house; host or cells: E. coli BL21 (DE3), pRK172; DE52 flow-through, P11 phosphocellulose, PEG concentration, no heat step (Preparation 2)
T1 sequence (P10636 614-708 limits assumed): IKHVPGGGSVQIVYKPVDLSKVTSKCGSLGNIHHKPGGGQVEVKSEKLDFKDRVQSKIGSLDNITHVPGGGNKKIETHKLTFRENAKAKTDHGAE
Experimental: Preparation 2 differs from Preparation 1 above in the following respects: (1) The concentration of cells at the sonication stage is increased by 5-fold. (2) A batchwise adsorption of non-tau proteins to DE52 is included. (3) The proteins are not subjected to heat treatment. (4) The final step involves concentration using polyethylene glycol.
Escherichia coli is grown in 2×TY medium (Oxoid) supplemented with ampicillin (50 micrograms per ml) to late-logarithmic phase. Cells from 5 liters of culture are harvested by centrifugation and the cell pellets frozen rapidly over liquid nitrogen. The pellets are taken up with 50 mM PIPES (pH 6.8) containing 1 mM EDTA, 1 mM dithiothreitol and 1 mM phenylmethylsulphonylfluoride (PMSF) and bacteria lysed by sonication (2×3 min) at 4 C. The mixture is centrifuged at 10,000 rpm for 20 min. The supernatant is rotated with 1 gram of Whatman DE52 for 3 hr at 4 C. The mixture is separated on a column and the flow-through material that fails to bind to DE52 is incubated for 3 hr at 4 C, with rotation, with 0.4 g of Whatman P11 (freshly regenerated according to manufacturer's recommendations). The column is washed with column buffer (50 mM PIPES, pH 6.8 containing 1 mM EGTA, 5 mM EDTA, 0.2 mM MgCl2, 5 mM β-mercaptoethanol and 1 mM PMSF). Tau protein is eluted stepwise with a 0.1 to 1 M gradient of KCl in column buffer. Fractions containing tau (determined by immunoassay) are pooled and dialysed against 80 mM PIPES (pH6.8) containing 1 mM EGTA, 1 mM MgCl2 and 5 mM β-mercatoethanol, using dialysis tubing with a molecular weight cut-off of 1,000. The dialysate is concentrated by applying polyethylene glycol 8000 to the outside of the sac for 2-3 hr. The final concentration of tau ranged from 3 to 10 mg per ml.
When the proteins dGA and dGAE were prepared as indicated above (“Preparation 2”), the properties of the tau-tau binding assay were altered relative to the properties obtained using the preparative method described in WO96/30766 (“Preparation 1”).
The assay is performed using 96 well PVC plates (Falcon Cat. No. 353912 are used), and the following steps:
1. 50 μl dGA (˜10 μg/ml) in carbonate buffer, incubate 1 h at 37° C.
(Carbonate buffer: 50 mM carbonate bicarbonate, pH 9.6 (Na2CO3 1.59 g/l, NaHCO3 2.93 g/l))
2. Wash plate in 0.05% Tween-20.
3. 200 μl PBS+2% Marvel, incubate 1 h at 37° C.
4. Rinse plate 2× in deionised water, then wash in 0.05% Tween-20.
5. 50 μl dGAE (˜10 μg/ml) plus drug in PBS+1% fish skin gelatin+0.05% Tween-20, incubate 1 h at 37° C.
6. Wash plate in 0.05% Tween-20.
7. 50 μl antibody 423 (1:10 dilution in PBS+2% Marvel), incubate 1 h at 37° C.
8. Rinse plate 2× in deionised water, then wash in 0.05% Tween-20.
9. 50 μl HRP-anti-mouse (1:1000 dilution in PBS+0.05% Tween-20), incubate 1 h at 37° C.
10. Wash plate in 0.05% Tween-20, then rinse 1× with deionised water.
11. 50 μl substrate solution, read immediately initial rate over 2 min in plate reader at OD650.
(Substrate solution: 50 mM sodium acetate, pH 5.0+TMB (1 ml/100 ml of a 10 mg/ml solution in DMSO)+H2O2 (10 μl/100 ml)).

tau-tau binding [2] = experiment: Solid-phase tau-tau binding assay, tau Preparation 1 (WO96/30766); type: biochemical, human
Text: This point was further examined by studying the potency of typical aggregated tau ligands as tau-aggregation inhibitors. It has been shown previously that tau aggregation inhibitors (e.g. diaminophenothiazines) can be identified on the basis of inhibition of tau-tau binding in a solid-phase assay (WO 96/30766). […] Thus, although these compounds are potent ligands for tau within the PHF-core, they are at most weak inhibitors at the site required for inhibition of tau-tau binding.
Large-scale purification (1 liter bacterial culture) of tau fragments was carried out as described by Goedert and Jakes (1990, EMBO J., 9, 4225-4230), with minor modifications. Cells were disrupted by rapid freezing of the cell pellet in liquid nitrogen. The pellets were then suspended in buffer containing 50 mM PIPES, 1 mM dithiothreitol (DTT) (pH 6.8). The thermostable proteins in the supernatant were dialysed against PIPES/DTT, then applied to a column containing phosphocellulose equilibrated in the same buffer. […] Fractions were analysed by SDS-PAGE and both Coomassie staining and immunoblotting. […] Protein concentrations were measured by the Lowry method (Harrington C R (1990), “Lowry protein assay containing sodium dodecyl sulphate in microtitre plates for protein determinations on fractions from brain tissue”, Analytical Biochemistry 186: 285-287).

tangle fragments = experiment: Competitive binding assay: displacement of primulin fluorescence from tangle fragments (ifI); set-up: species or system human; details: for competition with / displacement of other ligands at tangles: fluorescence end point
Experimental: IfI material was homogenised in a 0.2 ml glass homogeniser in PBS. To the suspension, test compounds were added to final concentrations ranging from 0.1% to 0.00001%. […] The suspensions were transferred to a glass slide, and examined by fluorescence microscopy across a range of fluorescence filter blocks, covering excitation and emission wavelengths between 380 nm and 570 nm. The end point sought in these observations was displacement of typical primulin fluorescence from tangle fragments.

PHFs = experiment: Spectrofluorometry of primulin in solution and bound to PHFs (ifII); type: binding
Experimental: These measurements were carried out in a Perkin-Elmer spectrofluorimeter (model MPF-3). A concentration of ligand of 0.00001% was routinely used for all measurements. […] All measurements were therefore carried out at a standard excitation wavelength of 370 nm, and a constant slit width of 3 mm.
Further investigations into the relationship between aggregation-dependent tau ligands and tau aggregation inhibitors were carried out using primulin. Primulin in solution has a fluorescence peak at 520 nm. This shifts to 470 nm when primulin is bound within a pure preparation of PHFs (FIG. 6). […] Therefore, binding by such compounds is dependent on the polymerised state of tau found in the PHF, but is not present in free tau.
Compounds have been identified which disrupt the structure of the PHF and reverse the proteolytic stability of the PHF core (see WO 96/30766). Examples of such compounds are shown in accompanying FIG. 8. The present inventors have now identified that these compounds bind to tau at a specific binding site within the high affinity tau-tau binding domain.

- inhibition of tau-tau binding (tau-tau binding [1]): no inhibitory activity
- inhibition of tau-tau binding (tau-tau binding [2]): weak inhibitors of tau-tau binding
- activity as ligand (tangle fragments): active ligands
- competition with / displacement of other ligands at tangles (tangle fragments): displace this from tangles
- competition with / displacement of other ligands at tangles (tangle fragments; listed as compound 1a): displace compound 1b at tangles
- excitation peak (PHFs; ligand 0.00001%): 370 nm
- fluorescence (emission) peak in solution (PHFs; unbound): 515 nm and 520 nm
SMILES: Cc1ccc2sc(-c3ccc4sc(-c5ccc(N)cc5)nc4c3)nc2c1S(=O)(=O)[O-].[Na+] [primulin]
- fluorescence peak when bound within PHFs (PHFs; pure preparation of PHFs): 460 nm and 470 nm
